Results on three molecules are retold here after publication PMC4666645 (PLoS Pathogens, 2015).

Structures are written as SMILES. Structures can show the parent of a compound that is named as a salt.

As usually defined, the EC50 is the midpoint of the concentration-response curve. Read a high EC50 as a need for much substance.

Test [1] has as its target Hco-L-AChR-1 (Hco-UNC-38, Hco-UNC-63, Hco-UNC-29.1, Hco-ACR-8) (Haemonchus contortus, UniProt A9XX24+D6MYE9+D6MYF3+D6MYF4). As to the kind of experiment: Two-electrode voltage-clamp on Xenopus oocytes expressing Hco-L-AChR-1. In kind it is cell-based. Conditions: for Response to agonist: 100 μM agonist. The source says:
H. contortus and P. equorum acr-26 and acr-27 cDNAs were PCR-amplified using primers containing a restriction site in order to be sub-cloned into the expression vector pTB207 that is suitable for in vitro transcription. Primers are listed in S3 Table. The resulting plasmids were linearized with the NheI restriction enzyme (Fermantas) and used as templates for cRNA synthesis using the T7 mMessage mMachine kit (Ambion). Xenopus laevis ovaries were obtained from the University of Rennes, France (CRB Xenope) and defolliculated using 2 mg/ml collagenase type II (Gibco) in the incubation solution containing: 100 mM NaCl, 2 mM KCl, 1.8 mM CaCl2.2H2O, 1 mM MgCl2.6H2O, 5 mM HEPES, 2.5 mM C3H3NaO3, pH 7.5, supplemented with penicillin 100 U/mL and streptomycin 100 μg/mL). The oocytes were injected in the animal pole with a total volume of 36 nL of cRNA mix containing 50 ng/μL of each cRNA in RNase-free water using the Drummond nanoject II microinjector. Microinjected oocytes were kept at 20°C in incubation medium for 4 days to allow the receptors expression. Two-electrode voltage-clamp recordings were carried out using an Oocyte Clamp OC-725C amplifier (Warner instrument) in oocytes being voltage-clamped at -60mV. All agonist preparations were prepared with recording buffer (100 mM NaCl, 2.5 mM KCl, 1 mM CaCl2.2H2O, 5 mM HEPES, pH 7.3). Currents were recorded and analyzed using the pCLAMP 10.4 package (Molecular Devices).
Supplementary file ppat.1005267.s003.tif: S3 Fig Pharmacological profiles of Hco-L-AChR-1 and Hco-L-AChR-2. […] The bars indicate the time period of the agonist application. Functional expression of Hco-L-AChR-1 requires the co-expression of Hco-UNC-38; Hco-UNC-63; Hco-UNC-29.1 and Hco-ACR-8 AChR subunits with the ancillary proteins Hco-RIC-3.1; Hco-UNC-50 and Hco-UNC-74 whereas Hco-L-AChR-2 requires the co-expression of Hco-UNC-38; Hco-UNC-63 and Hco-UNC-29.1 AChR subunits with the ancillary proteins Hco-RIC-3.1; Hco-UNC-50 and Hco-UNC-74. (C) Scatter plot (mean ± SEM) of normalized currents elicited by 100 μM Mor on Hco-26/27, Hco-L-AChR-1 and Hco-L-AChR-2. Currents have been normalized to and compared with 100 μM ACh elicited currents. Paired Student’s t-test, ***p<0.001. (D) Dose-response relationships of Hco-L-AChR-1 (black circle, n = 7) and Hco-L-AChR-2 (blue squares, n = 9) for Mor. Responses are normalized to 300 μM ACh elicited currents as described in Boulin et al.. […] (TIF) Click here for additional data file.
In general terms: In two-electrode clamp one electrode senses voltage and the other passes current.

Test [2] concerns C. elegans expressing Hco-26/27. Briefly: Thrashing assay on transgenic C. elegans expressing Hco-26/27. In kind it is in vivo, Caenorhabditis elegans. The text has this: Taking advantage of the absence of acr-26 and acr-27 homologs in the C. elegans genome, we used wild type N2 worms to express these two parasitic nematode AChR subunits. […] For Peq-ACR-26 and Peq-ACR-27, even though the localization of these subunits in Parascaris equorum remains to be investigated in more detail, we also used myo3 as a promoter in order to compare the functional impact of Hco-26/27 and Peq-26/27 on both motility and drug sensitivity in transgenic C. elegans.
Worms were maintained at 20°C on nematode growth medium (NGM) plates and fed on a bacterial lawn (Escherichia coli OP50). Bristol N2 was used as a reference wild-type C. elegans strain. Dose-response assays were performed on gravid adults placed in wells of a 96-well plate containing M9 salt solution (3 g/L KH2PO4, 6 g/L Na2HPO4, 5 g/L NaCl, and 1 mM MgSO4 with BSA at 0.1%) with varying anthelmintic concentrations. After 10 min, worm thrashing was counted for 1 min. A thrash was defined as a change in the direction of bending at the mid-body to return to the initial position. For each drug concentration, 30 worms were tested. Hco-acr-26, Hco-acr-27, Peq-acr-26 and Peq-acr-27 coding sequences were sub-cloned into the pPD96.52 (Addgene) vector containing the muscle promoter Pmyo3. Primer sequences containing the suitable restriction sites are listed in S3 Table. Extrachromosomal transgenic strains of C. elegans were obtained by micro-injecting DNA into the gonads of young adult hermaphrodite worms as described. N2 worms were injected with different mixes containing Pmyo3::Hco-acr-26; Pmyo3::Hco-acr-27; Pmyo3::Peq-acr-26; Pmyo3::Peq-acr-27 alone or in combination (Pmyo3::Hco-acr-26 + Pmyo3::Hco-acr-27 or Pmyo3::Peq-acr-26 + Pmyo3::Peq-acr-27) with a final concentration of 40 ng/μl for each plasmid. The plasmid pPD118.33_Pmyo2::gfp (Addgene) was co-injected at 25 ng/μl as a transformation marker. […] Thrashes produced by each worm during 1 minute were counted after a 10 minutes equilibration period. After drug application, thrashes were counted after 10, 20 and 30 minutes of exposure. […]

Chain of Hco-L-AChR-1 (Hco-UNC-38, Hco-UNC-63, Hco-UNC-29.1, Hco-ACR-8) (D6MYF3 20-512): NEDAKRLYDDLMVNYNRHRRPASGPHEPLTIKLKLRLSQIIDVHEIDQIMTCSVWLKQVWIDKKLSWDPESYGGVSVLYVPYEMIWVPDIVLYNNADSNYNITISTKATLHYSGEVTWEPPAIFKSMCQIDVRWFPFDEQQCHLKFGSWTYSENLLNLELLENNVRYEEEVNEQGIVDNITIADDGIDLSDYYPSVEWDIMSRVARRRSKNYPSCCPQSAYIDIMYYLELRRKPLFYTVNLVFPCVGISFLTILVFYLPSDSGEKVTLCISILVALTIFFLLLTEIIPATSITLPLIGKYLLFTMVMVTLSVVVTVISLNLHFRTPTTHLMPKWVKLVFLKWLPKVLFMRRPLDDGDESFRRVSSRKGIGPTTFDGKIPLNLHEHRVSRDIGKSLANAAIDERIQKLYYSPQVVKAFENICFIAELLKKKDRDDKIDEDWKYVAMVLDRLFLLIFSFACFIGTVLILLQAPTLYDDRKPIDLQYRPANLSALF
Chain of Hco-L-AChR-1 (Hco-UNC-38, Hco-UNC-63, Hco-UNC-29.1, Hco-ACR-8) (D6MYF4 22-504): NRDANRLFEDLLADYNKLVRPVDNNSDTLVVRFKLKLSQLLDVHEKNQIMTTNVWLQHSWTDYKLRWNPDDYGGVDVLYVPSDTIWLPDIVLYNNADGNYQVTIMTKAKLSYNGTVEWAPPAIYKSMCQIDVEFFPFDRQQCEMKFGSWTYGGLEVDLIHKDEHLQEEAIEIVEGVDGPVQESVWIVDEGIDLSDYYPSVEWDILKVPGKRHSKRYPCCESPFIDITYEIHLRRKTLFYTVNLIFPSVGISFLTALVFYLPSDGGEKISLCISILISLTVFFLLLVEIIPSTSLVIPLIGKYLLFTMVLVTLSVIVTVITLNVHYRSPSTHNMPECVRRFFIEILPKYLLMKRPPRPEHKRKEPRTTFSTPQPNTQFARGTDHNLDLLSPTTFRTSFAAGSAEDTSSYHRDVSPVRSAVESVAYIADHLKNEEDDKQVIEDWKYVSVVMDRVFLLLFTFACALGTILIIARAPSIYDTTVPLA
Chain of Hco-L-AChR-1 (Hco-UNC-38, Hco-UNC-63, Hco-UNC-29.1, Hco-ACR-8) (D6MYE9 21-498): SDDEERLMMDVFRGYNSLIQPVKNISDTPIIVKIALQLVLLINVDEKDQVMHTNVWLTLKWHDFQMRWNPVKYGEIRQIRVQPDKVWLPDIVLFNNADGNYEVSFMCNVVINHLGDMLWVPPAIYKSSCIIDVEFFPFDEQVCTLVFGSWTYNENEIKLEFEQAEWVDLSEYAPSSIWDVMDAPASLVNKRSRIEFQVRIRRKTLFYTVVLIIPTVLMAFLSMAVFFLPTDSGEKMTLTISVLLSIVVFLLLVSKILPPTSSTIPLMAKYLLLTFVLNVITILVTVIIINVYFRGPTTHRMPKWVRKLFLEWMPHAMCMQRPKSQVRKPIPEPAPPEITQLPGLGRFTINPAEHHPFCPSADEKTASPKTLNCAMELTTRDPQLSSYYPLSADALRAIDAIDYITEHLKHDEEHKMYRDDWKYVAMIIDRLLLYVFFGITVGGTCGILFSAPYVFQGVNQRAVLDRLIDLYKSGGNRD
Chain of Hco-L-AChR-1 (Hco-UNC-38, Hco-UNC-63, Hco-UNC-29.1, Hco-ACR-8) (A9XX24 19-536): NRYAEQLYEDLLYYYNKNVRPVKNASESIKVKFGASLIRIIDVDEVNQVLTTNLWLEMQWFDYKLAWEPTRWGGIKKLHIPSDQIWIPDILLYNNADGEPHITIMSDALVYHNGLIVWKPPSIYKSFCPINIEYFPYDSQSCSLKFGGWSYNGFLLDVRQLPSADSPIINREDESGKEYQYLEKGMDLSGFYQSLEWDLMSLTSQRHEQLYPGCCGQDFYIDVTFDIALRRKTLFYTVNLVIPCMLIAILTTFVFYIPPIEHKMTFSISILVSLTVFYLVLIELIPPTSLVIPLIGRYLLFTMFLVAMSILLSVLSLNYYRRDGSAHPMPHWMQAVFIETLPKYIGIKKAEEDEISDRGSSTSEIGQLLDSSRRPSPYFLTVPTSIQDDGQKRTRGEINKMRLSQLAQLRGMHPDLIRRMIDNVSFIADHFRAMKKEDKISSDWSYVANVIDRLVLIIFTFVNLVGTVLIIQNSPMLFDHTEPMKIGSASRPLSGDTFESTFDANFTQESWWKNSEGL

Turning to `c1ccc([C@H]2CN3CCSC3=N2)cc1` [Lev, (-)-tetramisole hydrochloride], the “Response to agonist” value in test [1] is on record as “very responsive”. Further, the “Change in sensitivity versus N2” value in test [2] (5 μM Lev) is reported as “no significant change”.
With `Cc1ccsc1/C=C/C1=NCCCN1C` [Mor, morantel], in test [1], the “Concentrations with potential channel-block effect” value is on record as “above 30 μM”, the response was half-maximal at 0.41 ± 0.23 µM (EC50) and the “Response to agonist” value is “weak response”. The “Reduction of thrashing motility” value in test [2] (40 μM Mor, 10 minutes exposure) is given as 93.3%.
For the molecule `CN1CCCN=C1/C=C/c1cccs1` [Pyr, pyrantel], the “Percentage reduction of thrashes min^-1” value in test [2] (50 μM Pyr, 10 minutes of drug exposure) stood at 65.4%.
